Results from US20220402925A1, “COMPOUNDS AND METHODS FOR THE TREATMENT OF CYSTIC FIBROSIS” (Flatley Discovery Lab, LLC, priority 2019, published 2022).

target: T1, F508del CFTR (Homo sapiens, UniProt P13569, DEL508-508); assay: Equivalent current assay in primary CF airway epithelial cells (Corrector Activity, NAUC normalized to 3 μM VX809); assay type: cell-based; settings: NAUC as % of positive control (VX-809)
T1 construct: Primary CF airway epithelial cells were obtained from the UNC Cystic Fibrosis Tissue Procurement and Cell Culture Core; host or cells: primary CF airway epithelial cells
Outline: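 Differentiated primary CF airway cells treated basolaterally 24 h at 37° C with compound (0.1% DMSO). Equivalent current recorded after 5 μM benzamil, stimulation with 10 μM forskolin plus 1 μM VX-770 or 3 μM FDL176, and block by 20 μM CFTR-172; vehicle-subtracted AUC normalized to 3 μM VX809; EC50 from sigmoid fit, Hill slope 1.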

T1 sequence (P13569 with tags, fused parts or gaps DEL508-508): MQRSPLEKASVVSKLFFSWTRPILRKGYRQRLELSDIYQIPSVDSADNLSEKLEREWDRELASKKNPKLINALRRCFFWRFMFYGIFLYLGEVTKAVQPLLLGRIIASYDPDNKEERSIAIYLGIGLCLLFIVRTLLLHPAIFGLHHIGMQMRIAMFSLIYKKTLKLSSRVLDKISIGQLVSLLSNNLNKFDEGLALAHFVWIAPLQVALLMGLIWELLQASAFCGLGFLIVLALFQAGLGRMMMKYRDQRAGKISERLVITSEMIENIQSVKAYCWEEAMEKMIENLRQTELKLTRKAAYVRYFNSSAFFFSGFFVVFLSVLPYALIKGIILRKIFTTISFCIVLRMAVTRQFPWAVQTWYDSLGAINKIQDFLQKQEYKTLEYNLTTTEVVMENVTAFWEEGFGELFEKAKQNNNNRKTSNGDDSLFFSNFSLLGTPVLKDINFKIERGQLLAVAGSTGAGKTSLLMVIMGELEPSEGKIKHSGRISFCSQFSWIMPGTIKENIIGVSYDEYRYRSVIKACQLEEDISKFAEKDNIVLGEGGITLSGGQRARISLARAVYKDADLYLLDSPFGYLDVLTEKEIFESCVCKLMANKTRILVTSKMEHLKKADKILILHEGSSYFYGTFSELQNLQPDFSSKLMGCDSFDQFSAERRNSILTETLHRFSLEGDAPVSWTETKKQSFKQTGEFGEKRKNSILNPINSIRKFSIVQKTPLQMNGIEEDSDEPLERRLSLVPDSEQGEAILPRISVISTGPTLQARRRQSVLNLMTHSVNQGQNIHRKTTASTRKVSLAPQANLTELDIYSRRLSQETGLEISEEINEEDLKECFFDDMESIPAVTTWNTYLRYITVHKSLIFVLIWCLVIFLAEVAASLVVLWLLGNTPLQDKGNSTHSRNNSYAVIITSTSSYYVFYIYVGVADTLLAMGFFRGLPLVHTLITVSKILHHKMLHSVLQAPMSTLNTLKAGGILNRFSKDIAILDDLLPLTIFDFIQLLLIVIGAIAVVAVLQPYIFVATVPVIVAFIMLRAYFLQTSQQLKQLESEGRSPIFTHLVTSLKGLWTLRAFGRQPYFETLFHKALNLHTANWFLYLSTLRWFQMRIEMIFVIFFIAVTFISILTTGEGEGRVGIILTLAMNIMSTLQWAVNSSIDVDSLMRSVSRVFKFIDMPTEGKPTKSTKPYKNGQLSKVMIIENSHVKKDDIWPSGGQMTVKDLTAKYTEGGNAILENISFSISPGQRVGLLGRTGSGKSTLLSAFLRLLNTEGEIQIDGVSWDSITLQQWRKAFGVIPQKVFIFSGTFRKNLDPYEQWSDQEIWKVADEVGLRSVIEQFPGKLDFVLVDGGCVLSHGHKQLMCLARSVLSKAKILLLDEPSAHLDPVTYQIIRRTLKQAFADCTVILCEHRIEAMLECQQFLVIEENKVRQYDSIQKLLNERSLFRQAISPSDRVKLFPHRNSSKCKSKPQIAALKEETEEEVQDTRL

| Structure (SMILES) | Corr Activity (NAUC) |
| --- | --- |
| N#Cc1cccc(-c2nn(CC(=O)N3CCCc4c3ccc3c4OC(F)(F)O3)c(=O)c3nc[nH]c23)c1 [Example 375] | +++ (NAUC>70% of positive control) |
| N#Cc1cc(OC(F)(F)F)cc(-c2nn(CC(=O)N(c3ccc4c(c3)OC(F)(F)O4)C3CC3)c(=O)c3nc[nH]c23)c1 [Example 408] | ++ (NAUC 70-40% of positive control) |
| CCN(C(=O)Cn1nc(-c2cccc(OC(C)(C)C)c2)c2occc2c1=O)c1ccc2c(c1)OC(F)(F)O2 [Example 89] | ++ (NAUC 70-40% of positive control) |
| CCN(C(=O)Cn1nc(-c2cc(C#N)cc(C(C)(C)C)c2)c2[nH]cnc2c1=O)c1ccc2c(c1)OC(F)(F)O2 [Example 245] | +++ (NAUC>70% of positive control) |
| CCN(C(=O)Cn1nc(-c2cc(C)cc(C#N)c2)c2oc(C(=O)NC(C)(C)C)cc2c1=O)c1cc2c(cc1C)OC(F)(F)O2 [Example 133] | +++ (NAUC>70% of positive control) |
| CCN(C(=O)Cn1nc(-c2cc(C)cc(C#N)c2)c2[nH]cnc2c1=O)c1cc2c(cc1C)OC(F)(F)O2 [Example 248] | +++ (NAUC>70% of positive control) |
| CN(C(=O)Cn1nc(-c2cccc(C#N)c2)c2occc2c1=O)c1ccc2c(c1F)OC(F)(F)O2 [Example 59] | +++ (NAUC>70% of positive control) |
| CCN(C(=O)Cn1nc(-c2cc(F)cc(Cl)c2)c2oc(C3CCC3)cc2c1=O)c1ccc2c(c1)OC(F)(F)O2 [Example 236] | +++ (NAUC>70% of positive control) |
| CCN(C(=O)Cn1nc(-c2ccc(OC)c(C(F)(F)F)c2)c2[nH]cnc2c1=O)c1ccc2c(c1)OC(F)(F)O2 [Example 338] | ++ (NAUC 70-40% of positive control) |
| COc1cc(OC)cc(-c2nn(CC(=O)N(c3ccc4c(c3)OC(F)(F)O4)C3CC3)c(=O)c3nc[nH]c23)c1 [Example 381] | + (NAUC<40% of positive control) |
| CCN(C(=O)Cn1nc(-c2cccc(C#N)c2)c2oc3ccccc3c2c1=O)c1ccc2c(c1)OC(F)(F)O2 [Example 159] | +++ (NAUC>70% of positive control) |
| N#Cc1cccc(-c2nn(CC(=O)N(c3ccc4c(c3)OC(F)(F)O4)C3CC3)c(=O)c3ccoc23)c1 [Example 40] | ++ (NAUC 70-40% of positive control) |
| CCN(C(=O)Cn1nc(-c2cc(Cl)cc(OCCOC)c2)c2[nH]cnc2c1=O)c1ccc2c(c1)OC(F)(F)O2 [Example 276] | +++ (NAUC>70% of positive control) |
| CCN(C(=O)Cn1nc(-c2cc(F)cc(C#N)c2)c2occc2c1=O)c1ccc2c(c1)OC(F)(F)O2 [Example 177] | +++ (NAUC>70% of positive control) |
| O=C(Cn1nc(-c2cc(Cl)cc(CO)c2)c2[nH]cnc2c1=O)N(c1ccc2c(c1)OC(F)(F)O2)C1CC1 [Example 405] | + (NAUC<40% of positive control) |
| CCN(C(=O)Cn1nc(-c2cc(Cl)cc(Cl)c2)c2[nH]cnc2c1=O)c1ccc2c(c1)OC(F)(F)O2 [Example 254] | +++ (NAUC>70% of positive control) |
| CCN(C(=O)Cn1nc(-c2cc(Cl)cc(C(=O)N(C)C)c2)c2[nH]cnc2c1=O)c1ccc2c(c1)OC(F)(F)O2 [Example 267] | + (NAUC<40% of positive control) |
| Cc1cc2c(cc1N(C)C(=O)Cn1nc(-c3cc(Cl)cc(C#N)c3)c3occc3c1=O)OC(F)(F)O2 [Example 168] | +++ (NAUC>70% of positive control) |
| Cc1nc2ccc(N(C)C(=O)Cn3nc(-c4cccc(F)c4)c4sccc4c3=O)cc2o1 [Example 1, 2-(7-(3-Fluorophenyl)-4-oxothieno[2,3-d]pyridazin-5(4H)-yl)-N-methyl-N-(2-methylbenzo[d]oxazol-6-yl)acetamide] | +++ (NAUC>70% of positive control) |

| Structure (SMILES) | Corr Activity (NAUC) |
| --- | --- |
| N#Cc1cc(-c2nn(CC(=O)N(c3ccc4c(c3)OC(F)(F)O4)C3CC3)c(=O)c3nc[nH]c23)ccc1N1CCC(F)C1 (centres unmarked) [Example 488] | +++ (NAUC>70% of positive control) |
| CCN(C(=O)Cn1nc(-c2cccc(Cl)c2)c2onc(C)c2c1=O)c1ccc2c(c1)OC(F)(F)O2 [Example 18] | ++ (NAUC 70-40% of positive control) |
| O=C(Cn1nc(-c2cc(F)cc(Cl)c2)c2[nH]cnc2c1=O)N(c1ccc2c(c1)OC(F)(F)O2)C1CC1 [Example 378] | ++ (NAUC 70-40% of positive control) |
| O=C(Cn1nc(-c2cc(F)cc(C(F)(F)F)c2)c2[nH]cnc2c1=O)N(c1ccc2c(c1)OC(F)(F)O2)C1CC1 [Example 391] | ++ (NAUC 70-40% of positive control) |
| CCN(C(=O)Cn1nc(-c2cc(F)cc(OC)c2)c2[nH]cnc2c1=O)c1ccc2c(c1)OC(F)(F)O2 [Example 261] | +++ (NAUC>70% of positive control) |
| CC(C)Oc1ccc(-c2nn(CC(=O)N(c3ccc4c(c3)OC(F)(F)O4)C3CC3)c(=O)c3nc[nH]c23)cc1Cl [Example 446] | +++ (NAUC>70% of positive control) |
| Cc1cc2c(cc1N(C)C(=O)Cn1nc(-c3cc(F)cc(C#N)c3)c3oc(C(=O)NC(C)(C)C)cc3c1=O)OC(F)(F)O2 [Example 135] | +++ (NAUC>70% of positive control) |
| Cc1c(N(C)C(=O)Cn2nc(-c3cc(F)cc(C#N)c3)c3oc(C(=O)NC(C)(C)C)cc3c2=O)ccc2c1OC(F)(F)O2 [Example 139] | +++ (NAUC>70% of positive control) |
| CCN(C(=O)Cn1nc(-c2cc(Cl)cc(Cl)c2)c2oc(C)cc2c1=O)c1ccc2c(c1)OC(F)(F)O2 [Example 73] | +++ (NAUC>70% of positive control) |
| CCN(C(=O)Cn1nc(-c2cccc(F)c2)c2c(c1=O)CCC2)c1ccc2nc(C)oc2c1 [Example 43] | +++ (NAUC>70% of positive control) |
| Cc1cc(C#N)cc(-c2nn(CC(=O)N(C)c3cc4c(cc3C)OC(F)(F)O4)c(=O)c3cc(C(=O)NC(C)(C)C)oc23)c1 [Example 134] | ++ (NAUC 70-40% of positive control) |
| Cc1cc2c(cc1N(C)C(=O)Cn1nc(-c3cc(Cl)cc(C#N)c3)c3oc(C(F)F)cc3c1=O)OC(F)(F)O2 [Example 193] | +++ (NAUC>70% of positive control) |
| CCN(C(=O)Cn1nc(-c2ccc(OCC(F)(F)F)c(F)c2)c2[nH]cnc2c1=O)c1ccc2c(c1)OC(F)(F)O2 [Example 339] | ++ (NAUC 70-40% of positive control) |
| Cc1cc(C#N)cc(-c2nn(CC(=O)N(C)c3ccc4c(c3)OC(F)(F)O4)c(=O)c3nc[nH]c23)c1 [Example 247] | +++ (NAUC>70% of positive control) |
| CCN(C(=O)Cn1nc(-c2cc(Cl)cc(C#N)c2)c2oc(C3CCC3)cc2c1=O)c1ccc2c(c1)OC(F)(F)O2 [Example 237] | ++ (NAUC 70-40% of positive control) |
| N#Cc1cc(F)cc(-c2nn(CC(=O)N3CCCc4c3ccc3c4OC(F)(F)O3)c(=O)c3ccoc23)c1 [Example 104] | +++ (NAUC>70% of positive control) |
| Cc1c(N(C)C(=O)Cn2nc(-c3cc(F)cc(C#N)c3)c3occc3c2=O)ccc2c1OC(F)(F)O2 [Example 170] | ++ (NAUC 70-40% of positive control) |
| CCN(C(=O)Cn1nc(-c2ccc3cc(OC)ccc3c2)c2[nH]cnc2c1=O)c1ccc2c(c1)OC(F)(F)O2 [Example 289] | +++ (NAUC>70% of positive control) |
| CCN(C(=O)Cn1nc(-c2cc(F)cc(OC)c2)c2oc(C3CC3)cc2c1=O)c1ccc2c(c1)OC(F)(F)O2 [Example 228] | +++ (NAUC>70% of positive control) |
